“And” between values parts separate entries of the source, which are not always exact repeats. Equal values may be shown once.
Test system: SW1271 complex spheroids with HUVEC/MSC, growth, % test/control
Test: Anticancer human tumor SW1271 cell line growth inhibition [AhR];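 note: spheroids exposed to agents for 7 days before readout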
Details: for viability, T/C: stronger effect = lower value
How it was run: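 Complex tumor spheroids co-cultured with HUVEC and human MSC stroma; AhR antagonists tested in combination with standard-of-care and investigational agents. Top concentration at or near clinical Cmax (else 10 microM), half-log dilutions; growth expressed as percent test/control.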

[1] = curve of first compound, second compound 0.1 µM
[2] = curve of first compound, second compound 0.316 µM
[3] = curve of first compound, second compound 1 µM
[4] = curve of first compound, second compound 3.16 µM
[5] = curve of first compound, second compound 10 µM
[6] = second compound 0.1 µM, first compound 0.0316 µM
[7] = second compound 0.1 µM, first compound 0.1 µM
[8] = second compound 0.1 µM, first compound 0.316 µM
[9] = second compound 0.1 µM, first compound 1 µM
[10] = second compound 0.1 µM, first compound 3.16 µM
[11] = second compound 0.1 µM, first compound 10 µM
[12] = second compound 0.316 µM, first compound 0.0316 µM
[13] = second compound 0.316 µM, first compound 0.1 µM
[14] = second compound 0.316 µM, first compound 0.316 µM
[15] = second compound 0.316 µM, first compound 1 µM
[16] = second compound 0.316 µM, first compound 3.16 µM
[17] = second compound 0.316 µM, first compound 10 µM
[18] = second compound 1 µM, first compound 0.0316 µM
[19] = second compound 1 µM, first compound 0.1 µM
[20] = second compound 1 µM, first compound 0.316 µM
[21] = second compound 1 µM, first compound 1 µM
[22] = second compound 1 µM, first compound 3.16 µM
[23] = second compound 1 µM, first compound 10 µM
[24] = second compound 3.16 µM, first compound 0.0316 µM
[25] = second compound 3.16 µM, first compound 0.1 µM
[26] = second compound 3.16 µM, first compound 0.316 µM
[27] = second compound 3.16 µM, first compound 1 µM
[28] = second compound 3.16 µM, first compound 3.16 µM
[29] = second compound 3.16 µM, first compound 10 µM
[30] = second compound 10 µM, first compound 0.0316 µM
[31] = second compound 10 µM, first compound 0.1 µM
[32] = second compound 10 µM, first compound 0.316 µM
[33] = second compound 10 µM, first compound 1 µM
[34] = second compound 10 µM, first compound 3.16 µM
[35] = second compound 10 µM, first compound 10 µM

Compound	IC50 [1]	IC50 [2]	IC50 [3]	IC50 [4]	IC50 [5]	viability, T/C [6]	viability, T/C [7]	viability, T/C [8]	viability, T/C [9]	viability, T/C [10]	viability, T/C [11]	viability, T/C [12]	viability, T/C [13]	viability, T/C [14]	viability, T/C [15]	viability, T/C [16]	viability, T/C [17]	viability, T/C [18]	viability, T/C [19]	viability, T/C [20]	other results
CC1(C)CCC(CN2CCN(c3ccc(C(=O)NS(=O)(=O)c4ccc(NCC5CCOCC5)c([N+](=O)[O-])c4)c(Oc4cnc5[nH]ccc5c4)c3)CC2)=C(c2ccc(Cl)cc2)C1 + Cc1ccccc1N=Nc1ccc(NC(=O)c2ccnn2C)c(C)c1	> 10 µM	> 10 µM	> 10 µM	> 10 µM	> 10 µM	96.4%	99.5%	100%	79.4%	88.2%	94.1%	110%	78.6%	102%	99.3%	85.4%	90%	110%	88%	113%	viability, T/C [21]: 92.9%; viability, T/C [22]: 95.1%; viability, T/C [23]: 128%; viability, T/C [24]: 91.9%; viability, T/C [25]: 105%; viability, T/C [26]: 87.5%; viability, T/C [27]: 76.1%; viability, T/C [28]: 78.3%; viability, T/C [29]: 112%; viability, T/C [30]: 102%; viability, T/C [31]: 99.3%; viability, T/C [32]: 98.4%; viability, T/C [33]: 86%; viability, T/C [34]: 83%; viability, T/C [35]: 93.3%
NS(=O)(=O)OCC1CC(n2ccc3c(NC4CCc5ccccc54)ncnc32)CC1O (configuration not stated)																					viability, T/C (compound 0.0316 µM): 151% and 137% and 133%; viability, T/C (compound 0.1 µM): 143% and 152% and 145%; viability, T/C (compound 0.316 µM): 120% and 101% and 89.3%; viability, T/C (compound 1 µM): 99.3% and 103% and 71.7%; viability, T/C (compound 3.16 µM): 88.6% and 93.6% and 57.3%; viability, T/C (compound 10 µM): 77% and 86.9% and 55.2%; IC50 (curve of compound): > 10 µM and 8.7 µM
COc1cc(Nc2ncc3c(n2)-c2ccc(Cl)cc2C(c2c(F)cccc2OC)=NC3)ccc1C(=O)O + Cc1ccccc1N=Nc1ccc(NC(=O)c2ccnn2C)c(C)c1	> 10 µM	> 10 µM	8.76 µM	> 10 µM	> 10 µM	73.8%	65.6%	77.2%	52.5%	61%	50.9%	72.5%	67.1%	79.2%	65.9%	62.7%	53.2%	81.8%	81%	74.4%	viability, T/C [21]: 72%; viability, T/C [22]: 85.5%; viability, T/C [23]: 46.4%; viability, T/C [24]: 87.3%; viability, T/C [25]: 72.5%; viability, T/C [26]: 66%; viability, T/C [27]: 57.9%; viability, T/C [28]: 68.9%; viability, T/C [29]: 60.2%; viability, T/C [30]: 65.3%; viability, T/C [31]: 94.1%; viability, T/C [32]: 65.7%; viability, T/C [33]: 60.5%; viability, T/C [34]: 75.8%; viability, T/C [35]: 53.8%
